# Measurements taken from paper PMC9308496 (Journal of medicinal chemistry, 2021).
# Legend:
# [1] = dogs; cited from earlier work
# hD3R = hD3R (Homo sapiens, UniProt P35462); assay: Radioligand competition binding at hD3R with [3H]-N-methylspiperone
# MOR (SNAP-mMOR) = MOR (SNAP-mMOR) (Mus musculus, UniProt P42866); assay: BRET antagonism at MOR using GPA in the presence of 100 nM DAMGO; format: cell-based
# hD2R (human D2LR) = hD2R (human D2LR) (Homo sapiens, UniProt P14416); assay: Radioligand competition binding at hD2R with [3H]-N-methylspiperone
# Chain of hD2R (human D2LR) (P14416 whole entry): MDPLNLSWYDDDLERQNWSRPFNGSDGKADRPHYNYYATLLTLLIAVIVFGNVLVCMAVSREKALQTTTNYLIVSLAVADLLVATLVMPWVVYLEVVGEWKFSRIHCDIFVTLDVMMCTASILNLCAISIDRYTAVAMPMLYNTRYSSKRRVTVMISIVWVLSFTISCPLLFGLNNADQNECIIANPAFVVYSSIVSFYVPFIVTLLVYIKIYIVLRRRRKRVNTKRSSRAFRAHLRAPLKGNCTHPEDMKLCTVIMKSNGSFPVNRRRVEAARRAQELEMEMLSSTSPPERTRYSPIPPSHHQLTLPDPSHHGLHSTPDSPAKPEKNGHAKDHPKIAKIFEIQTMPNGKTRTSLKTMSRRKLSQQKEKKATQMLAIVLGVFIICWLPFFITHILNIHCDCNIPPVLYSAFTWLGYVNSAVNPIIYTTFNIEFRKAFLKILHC
# Chain of hD3R (P35462 whole entry): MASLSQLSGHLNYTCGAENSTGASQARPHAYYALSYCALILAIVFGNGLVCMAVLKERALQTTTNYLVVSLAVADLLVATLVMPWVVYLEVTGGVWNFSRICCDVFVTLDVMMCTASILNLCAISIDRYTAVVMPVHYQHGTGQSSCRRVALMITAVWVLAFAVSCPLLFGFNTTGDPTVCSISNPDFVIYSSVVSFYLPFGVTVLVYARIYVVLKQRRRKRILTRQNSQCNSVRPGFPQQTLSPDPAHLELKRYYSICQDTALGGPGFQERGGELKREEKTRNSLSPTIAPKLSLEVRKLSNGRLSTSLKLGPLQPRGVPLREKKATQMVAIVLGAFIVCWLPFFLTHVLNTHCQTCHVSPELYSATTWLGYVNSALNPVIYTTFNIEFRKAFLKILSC
# Chain of MOR (SNAP-mMOR) (P42866 whole entry): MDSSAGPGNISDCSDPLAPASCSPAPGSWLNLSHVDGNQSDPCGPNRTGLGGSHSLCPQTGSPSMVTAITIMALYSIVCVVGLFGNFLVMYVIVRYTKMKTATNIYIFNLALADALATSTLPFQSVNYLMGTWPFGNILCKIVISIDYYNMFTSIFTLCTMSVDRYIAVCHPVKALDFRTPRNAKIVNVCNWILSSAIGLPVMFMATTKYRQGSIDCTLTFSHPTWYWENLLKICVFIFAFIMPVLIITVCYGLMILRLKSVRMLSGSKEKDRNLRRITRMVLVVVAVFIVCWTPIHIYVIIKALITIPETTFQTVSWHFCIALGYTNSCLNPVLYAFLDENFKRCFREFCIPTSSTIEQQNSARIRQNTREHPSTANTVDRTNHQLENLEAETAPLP
smiles,measurement,setting,value
Cc1ncoc1-c1nnc(SCCCN2C[C@@H]3C[C@]3(c3ccc(C(F)(F)F)cc3F)C2)n1C [GSK598809],potentiation of hypertensive effects of cocaine,[1],potentiation of hypertensive effects observed in dogs produced by cocaine
"CCOC(=O)/C=C1\[C@@H]2CCC[C@@]1(c1cccc(O)c1)CCN2CCN1CCN(c2cccc(Cl)c2Cl)CC1 [compound 65, Ethyl (Z)-2-((1S,5S)-2-(2-(4-(2,3-dichlorophenyl)piperazin-1-yl)ethyl)-5-(3-hydroxyphenyl)-2-azabicyclo[3.3.1]nonan-9-ylidene)acetate]",Ki,hD3R,139 nM
"CCOC(=O)/C=C1\[C@@H]2CCC[C@@]1(c1cccc(O)c1)CCN2CCCCNC(=O)c1cc2ccccc2[nH]1 [compound 57, trans-Ethyl (Z)-2-((1S,5S)-2-(4-(1H-indole-2-carboxamido)butyl)-5-(3-hydroxyphenyl)-2-azabicyclo[3.3.1]nonan-9-ylidene)acetate]",IC50,MOR (SNAP-mMOR),3520 nM
"O=C(NCCCCN1CC[C@]2(c3cccc(O)c3)CCC[C@H]1[C@H]2O)c1cc2ccccc2[nH]1 [compound 62, N-(4-((1S,5S,9S)-9-Hydroxy-5-(3-hydroxyphenyl)-2-azabicyclo[3.3.1]nonan-2-yl)butyl)-1H-indole-2-carboxamide]",Ki,hD3R,79.6 nM
"CCC(=O)C(CC(C)N(C)C)(c1ccccc1)c1ccccc1 (centres unmarked) [compound 6, methadone]",D2R Ki,hD2R (human D2LR),completely inactive
